Measurements as given in ChEMBL document CHEMBL1201862, “PubChem BioAssay data set” (2004).
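All cell lines were grown in 96-well plates and treated with compound for 48 hours. At the GI50, growth is halved.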 The source made the active and inactive calls. No stated cut-off is given here; in the data, active = GI50 up to about 1.1 µM and inactive = higher.

What was measured:
Test in all cases: growth of human tumour cells (NCI), 48 h
MCF7 = system: MCF7
SF-295 = system: SF-295
KM12 = system: KM12
SNB-19 = system: SNB-19
LOX IMVI = system: LOX IMVI
SN12C = system: SN12C
SW-620 = system: SW-620
HOP-92 = system: HOP-92
UACC-62 = system: UACC-62
SF-268 = system: SF-268
786-0 = system: 786-0
SNB-75 = system: SNB-75
MOLT-4 = system: MOLT-4
RPMI-8226 = system: RPMI-8226
COLO 205 = system: COLO 205
MDA-N = system: MDA-N
CAKI-1 = system: CAKI-1
IGROV-1 = system: IGROV-1
SF-539 = system: SF-539

Measured: GI50

Fc1ccc(C(OCCN2CCC3CCC(C2)N3CCCc2ccccc2)c2ccc(F)cc2)cc1 (stereo not given)
inactive: MCF7 3.74 µM | SF-295 2.77 µM | KM12 3.11 µM | SNB-19 10.1 µM | LOX IMVI 3.83 µM | SN12C 3.57 µM | SW-620 3.64 µM | HOP-92 5.45 µM | UACC-62 5.75 µM | SF-268 6.62 µM | 786-0 2.41 µM | SNB-75 2.4 µM | MOLT-4 2.58 µM | RPMI-8226 2.48 µM | COLO 205 1.37 µM | MDA-N 3.27 µM | CAKI-1 4.86 µM | IGROV-1 4.97 µM | SF-539 1.35 µM

Nc1cc2c3c(cccc3c1)C(=O)N(c1ccc(OCCN3CCCCC3)cc1)C2=O
inactive: MCF7 19.1 µM | SF-295 16.9 µM | KM12 20 µM | SNB-19 18.3 µM | LOX IMVI 14 µM | SN12C 15.9 µM | SW-620 20.6 µM | HOP-92 14.9 µM | UACC-62 19.1 µM | SF-268 19.1 µM | 786-0 16.9 µM | SNB-75 14.6 µM | MOLT-4 12.1 µM | RPMI-8226 18.3 µM | COLO 205 13.4 µM | MDA-N 18.5 µM | CAKI-1 17.8 µM | IGROV-1 17.6 µM | SF-539 14 µM

COc1ccccc1-n1nnc2c(N)nc(N)nc21
inactive: MCF7 > 100 µM | SF-295 > 100 µM | KM12 > 100 µM | SNB-19 > 100 µM | LOX IMVI > 100 µM | SN12C > 100 µM | SW-620 > 100 µM | HOP-92 > 100 µM | UACC-62 > 100 µM | SF-268 > 100 µM | 786-0 > 100 µM | SNB-75 > 100 µM | MOLT-4 > 100 µM | RPMI-8226 > 100 µM | COLO 205 > 100 µM | MDA-N > 100 µM | CAKI-1 > 100 µM | IGROV-1 > 100 µM | SF-539 > 100 µM

COc1ccc(C2=C(N)c3cc(OC)ccc3C2=O)cc1
inactive: MCF7 > 100 µM | SF-295 > 100 µM | KM12 29.2 µM | SNB-19 24.5 µM | LOX IMVI > 100 µM | SN12C > 100 µM | SW-620 > 100 µM | HOP-92 > 100 µM | UACC-62 > 100 µM | SF-268 47.3 µM | 786-0 > 100 µM | SNB-75 16.1 µM | MOLT-4 > 100 µM | RPMI-8226 38.2 µM | COLO 205 > 100 µM | MDA-N > 100 µM | CAKI-1 > 100 µM | IGROV-1 > 100 µM | SF-539 > 100 µM

CCOC(=O)N1CCN(Cc2cc(=O)n3cc(C)ccc3n2)CC1
inactive: MCF7 > 100 µM | SF-295 > 100 µM | KM12 > 100 µM | SNB-19 > 100 µM | LOX IMVI > 100 µM | SN12C > 100 µM | SW-620 > 100 µM | HOP-92 > 100 µM | UACC-62 > 100 µM | SF-268 > 100 µM | 786-0 > 100 µM | SNB-75 > 100 µM | MOLT-4 > 100 µM | RPMI-8226 > 100 µM | COLO 205 > 100 µM | MDA-N > 100 µM | CAKI-1 > 100 µM | IGROV-1 > 100 µM | SF-539 > 100 µM

C=C1C(=O)O[C@H]2[C@@H]3O[C@@](C)(CC/C=C(\C)CCC[C@@H]2C)[C@H](O)C[C@@H]13
inactive: MCF7 2.08 µM | SF-295 13.9 µM | KM12 10.8 µM | SNB-19 > 10 µM | LOX IMVI 2.86 µM | SN12C 2.28 µM | SW-620 7.96 µM | HOP-92 3.42 µM | UACC-62 3.73 µM | SF-268 16.8 µM | 786-0 2.75 µM | SNB-75 16.4 µM | MOLT-4 3.08 µM | RPMI-8226 2.25 µM | COLO 205 2.42 µM | MDA-N 2.36 µM | CAKI-1 1.42 µM | IGROV-1 4.72 µM | SF-539 2.14 µM

Cc1ccccc1OC(C)C(=O)NN1C(=O)CC(=O)N(c2ccc(Cl)cc2)C1=S (stereo not given)
inactive: MCF7 31.3 µM | SF-295 36.8 µM | KM12 36.3 µM | SNB-19 61.1 µM | LOX IMVI 29 µM | SN12C 34.3 µM | SW-620 36.2 µM | HOP-92 19.3 µM | UACC-62 27.9 µM | SF-268 50.9 µM | 786-0 34 µM | SNB-75 35 µM | MOLT-4 30.5 µM | RPMI-8226 34.4 µM | COLO 205 23.3 µM | MDA-N 32.1 µM | CAKI-1 37.8 µM | IGROV-1 49.9 µM | SF-539 46.1 µM

C[C@@H](C1CC[C@H]2[C@@H]3[C@@H]4O[C@@H]4[C@@]4(O)CC=CC(=O)[C@]4(C)[C@H]3C[C@H](O)[C@]12C)[C@H]1C[C@]2(C)O[C@]2(C)C(=O)O1 (stereo not given in full)
inactive: MCF7 > 100 µM | SF-295 > 100 µM | KM12 > 100 µM | SNB-19 > 100 µM | LOX IMVI > 100 µM | SN12C > 100 µM | SW-620 > 100 µM | HOP-92 > 100 µM | UACC-62 > 100 µM | SF-268 > 100 µM | 786-0 > 100 µM | SNB-75 > 100 µM | MOLT-4 > 100 µM | RPMI-8226 > 100 µM | COLO 205 > 100 µM | MDA-N > 100 µM | CAKI-1 > 100 µM | IGROV-1 > 100 µM | SF-539 > 100 µM

O=C1OC(c2ccc([N+](=O)[O-])cc2)=N/C1=C\c1ccc(Cl)cc1
inactive: MCF7 > 100 µM | SF-295 > 100 µM | KM12 > 100 µM | SNB-19 > 100 µM | LOX IMVI > 100 µM | SN12C > 100 µM | SW-620 > 100 µM | HOP-92 > 100 µM | UACC-62 > 100 µM | SF-268 > 100 µM | 786-0 > 100 µM | SNB-75 > 100 µM | MOLT-4 > 100 µM | RPMI-8226 > 100 µM | COLO 205 > 100 µM | MDA-N > 100 µM | CAKI-1 > 100 µM | IGROV-1 > 100 µM | SF-539 > 100 µM

C[N+]1(CCN[N+]2(C)CCCCC2)CCc2ccccc2C1 (stereo not given)
inactive: MCF7 > 100 µM | SF-295 > 100 µM | KM12 > 100 µM | SNB-19 > 100 µM | LOX IMVI > 100 µM | SN12C > 100 µM | SW-620 > 100 µM | HOP-92 > 100 µM | UACC-62 > 100 µM | SF-268 > 100 µM | 786-0 > 100 µM | SNB-75 > 100 µM | MOLT-4 > 100 µM | RPMI-8226 > 100 µM | COLO 205 > 100 µM | MDA-N > 100 µM | CAKI-1 > 100 µM | IGROV-1 > 100 µM | SF-539 58.3 µM
